Assay results published in ChEMBL document CHEMBL5380810, “Scaffold Hybrid of the Natural Product Tanshinone I with Piperidine for the Discovery of a Potent NLRP3 Inflammasome Inhibitor” (J Med Chem, 2023).
In brackets after ≈: the same amount, converted by molar mass. Activity calls are given as the source filed them. The rule behind the calls is not given here.

Columns and labels:
[1] = test system: Peritoneal macrophage; assay: Antiinflammatory activity against LPS-stimulated mouse peritoneal macrophage assessed as TNF-alpha level at 2 uM treated for 3 hrs followed by ATP addition measured after 30 mins by ELISA method relative to control; type: functional; conditions: time 3.5 hrs
[2] = test system: Peritoneal macrophage; assay: Cytotoxicity against mouse peritoneal macrophages at 4 uM incubated for 3.5 hrs by MTT assay; type: toxicity, cell-based
[3] = Aqueous solubility of compound incubated for 24 hrs by HPLC analysis; type: physicochemical; conditions: buffer
[4] = test system: Peritoneal macrophage; assay: Antiinflammatory activity against LPS-stimulated mouse peritoneal macrophage assessed as IL-1beta level at 2 uM treated for 3 hrs followed by ATP addition measured after 30 mins by ELISA method relative to control; type: functional; conditions: time 3.5 hrs
[5] = test system: Peritoneal macrophage; assay: Antiinflammatory activity against LPS-stimulated mouse peritoneal macrophage assessed as IL-6 level at 2 uM treated for 3 hrs followed by ATP addition measured after 30 mins by ELISA method relative to control; type: functional; conditions: time 3.5 hrs
[6] = test system: Peritoneal macrophage; assay: Antiinflammatory activity against LPS-stimulated mouse peritoneal macrophage assessed as IL-6 level at 2 uM treated for 3 hrs followed by ATP addition measured after 30 mins by ELISA method; type: functional, cell-based; conditions: time 3.5 hrs
[7] = test system: Peritoneal macrophage; assay: Antiinflammatory activity against LPS-stimulated mouse peritoneal macrophage assessed as inhibition of IL-1beta secretion treated for 3 hrs followed by ATP addition measured after 30 mins by ELISA method; type: functional, cell-based
[8] = Metabolic stability in human liver microsomes assessed as half life at 20 uM measured upto 120 mins in presence of NADPH by LC-MS/MS analysis; type: ADME, Microsome
[9] = Metabolic stability in human liver microsomes assessed as intrinsic clearance at 20 uM measured upto 120 mins in presence of NADPH by LC-MS/MS analysis; type: ADME, Microsome; conditions: read-out: CLH
[10] = Metabolic stability in mouse liver microsomes assessed as intrinsic clearance at 20 uM measured upto 120 mins in presence of NADPH by LC-MS/MS analysis; type: ADME, Microsome; conditions: read-out: CLH
[11] = Metabolic stability in mouse liver microsomes assessed as half life at 20 uM measured upto 120 mins in presence of NADPH by LC-MS/MS analysis; type: ADME, Microsome
[12] = test system: Peritoneal macrophage; assay: Antiinflammatory activity against LPS-stimulated mouse peritoneal macrophage assessed as TNF-alpha level at 2 uM treated for 3 hrs followed by ATP addition measured after 30 mins by ELISA method; type: functional, cell-based; conditions: time 3.5 hrs
[13] = test system: Mus musculus; assay: Antiinflammatory activity in septic C57BL/6 mouse model assessed as decrease in LPS-induced IL-1beta release at 50 mg/kg, ip pretreated for 42 hrs followed by LPS injection measured after 6 hrs by ELISA method; type: functional, organism-based; conditions: time 48.0 hrs
[14] = test system: Mus musculus; assay: Antiinflammatory activity in septic C57BL/6 mouse model assessed as reduction in LPS-induced granulocyte count at 50 mg/kg, ip pretreated for 42 hrs followed by LPS injection measured after 6 hrs by H and E staining based analysis; type: functional, organism-based; conditions: time 48.0 hrs
[15] = test system: Peritoneal macrophage; assay: Effect on pro-IL-1beta expression in ATP-induced LPS-primed mouse peritoneal macrophage cells at 2 uM treated for 3 hrs followed by ATP addition measured after 30 mins by Western blot analysis; type: functional, cell-based; conditions: time 3.5 hrs
[16] = biological target: NACHT, LRR and PYD domains-containing protein 3 (Mus musculus) (UniProt Q8R4B8); assay: Inhibition of NLRP3 inflammasome activation in LPS-stimulated mouse peritoneal macrophage assessed as inhibition of caspase-1 secretion at 2 uM treated for 3 hrs followed by ATP addition measured after 30 mins by Western blot analysis relative to control; type: cell-based; conditions: time 3.5 hrs
Chain of NACHT, LRR and PYD domains-containing protein 3 (Mus musculus) (Q8R4B8 whole entry, the tested form may be a part): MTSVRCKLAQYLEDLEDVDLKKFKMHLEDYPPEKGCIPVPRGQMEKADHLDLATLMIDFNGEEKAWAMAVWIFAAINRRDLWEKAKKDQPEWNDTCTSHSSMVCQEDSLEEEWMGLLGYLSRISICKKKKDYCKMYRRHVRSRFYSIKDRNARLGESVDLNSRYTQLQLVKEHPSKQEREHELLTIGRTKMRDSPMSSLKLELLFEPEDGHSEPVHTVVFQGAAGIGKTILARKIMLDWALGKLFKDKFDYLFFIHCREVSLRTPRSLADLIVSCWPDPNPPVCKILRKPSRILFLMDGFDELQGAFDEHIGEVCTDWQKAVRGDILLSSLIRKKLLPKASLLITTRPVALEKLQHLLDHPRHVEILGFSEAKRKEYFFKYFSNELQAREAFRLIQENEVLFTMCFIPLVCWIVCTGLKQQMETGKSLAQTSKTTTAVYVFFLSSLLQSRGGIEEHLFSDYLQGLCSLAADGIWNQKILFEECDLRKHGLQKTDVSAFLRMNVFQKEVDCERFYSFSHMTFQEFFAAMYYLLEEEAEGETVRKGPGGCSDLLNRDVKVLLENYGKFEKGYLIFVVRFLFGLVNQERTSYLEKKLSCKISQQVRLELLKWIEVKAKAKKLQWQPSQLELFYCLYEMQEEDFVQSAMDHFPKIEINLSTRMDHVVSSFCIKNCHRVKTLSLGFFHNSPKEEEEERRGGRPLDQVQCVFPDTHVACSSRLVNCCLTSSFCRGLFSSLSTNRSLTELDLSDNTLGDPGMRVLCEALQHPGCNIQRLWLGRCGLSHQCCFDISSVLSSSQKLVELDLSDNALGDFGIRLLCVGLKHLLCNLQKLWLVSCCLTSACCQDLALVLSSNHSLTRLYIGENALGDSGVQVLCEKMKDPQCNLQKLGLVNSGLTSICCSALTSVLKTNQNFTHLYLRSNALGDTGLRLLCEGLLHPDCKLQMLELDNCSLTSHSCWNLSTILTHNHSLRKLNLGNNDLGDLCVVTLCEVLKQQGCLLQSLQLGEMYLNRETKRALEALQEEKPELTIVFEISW

[17] = test system: Peritoneal macrophage; assay: Effect on pro-caspase-1 expression in LPS-stimulated mouse peritoneal macrophage at 2 uM treated for 3 hrs followed by ATP addition measured after 30 mins by Western blot analysis; type: functional, cell-based; conditions: time 3.5 hrs
[18] = test system: Peritoneal macrophage; assay: Antiinflammatory activity against LPS-stimulated mouse peritoneal macrophage assessed as inhibition of IL-1beta secretion at 1 uM treated for 3 hrs followed by ATP addition measured after 30 mins by ELISA method; type: functional, cell-based; conditions: time 3.5 hrs
[19] = test system: Mus musculus; assay: Antiinflammatory activity in septic C57BL/6 mouse model assessed as reduction in LPS-induced inflammatory infiltration at 50 mg/kg, ip pretreated for 42 hrs followed by LPS injection measured after 6 hrs by H and E staining based analysis; type: functional, organism-based; conditions: time 48.0 hrs
[20] = biological target: NACHT, LRR and PYD domains-containing protein 3 (Mus musculus) (UniProt Q8R4B8); assay: Inhibition of NLRP3 inflammasome activation in […] LPS-primed mouse peritoneal macrophage cells assessed as inhibition of IL-1beta secretion at 2 uM treated for 3 hrs followed by nigericin addition measured after 30 mins by ELISA method; type: cell-based; conditions: time 3.5 hrs
[21] = test system: Peritoneal macrophage; assay: Effect on pro-caspase-1 expression in ATP-induced LPS-primed mouse peritoneal macrophage cells at 2 uM treated for 3 hrs followed by ATP addition measured after 30 mins by Western blot analysis; type: functional, cell-based; conditions: time 3.5 hrs
[22] = biological target: NACHT, LRR and PYD domains-containing protein 3 (Mus musculus) (UniProt Q8R4B8); assay: Inhibition of NLRP3 inflammasome activation in ATP-induced LPS-primed mouse BMDM cells assessed as inhibition of IL-1beta secretion at 1 uM treated for 3 hrs followed by ATP addition measured after 30 mins by ELISA method; type: cell-based; conditions: time 3.5 hrs
[23] = biological target: NACHT, LRR and PYD domains-containing protein 3 (Mus musculus) (UniProt Q8R4B8); assay: Inhibition of NLRP3 inflammasome activation in […] LPS-primed mouse peritoneal macrophage cells assessed as inhibition of IL-1beta secretion at 2 uM treated for 3 hrs followed by MSU addition measured after 30 mins by ELISA method; type: cell-based; conditions: time 3.5 hrs
[24] = test system: Peritoneal macrophage; assay: Effect on NLRP3 expression in ATP-induced LPS-primed mouse peritoneal macrophage cells at 2 uM treated for 3 hrs followed by ATP addition measured after 30 mins by Western blot analysis; type: functional, cell-based; conditions: time 3.5 hrs
[25] = test system: Mus musculus; assay: Antiinflammatory activity in septic C57BL/6 mouse model assessed as reduction in LPS-induced alveolar wall thickening at 50 mg/kg, ip pretreated for 42 hrs followed by LPS injection measured after 6 hrs by H and E staining based analysis; type: functional, organism-based; conditions: time 48.0 hrs
[26] = test system: Mus musculus; assay: Antiinflammatory activity in septic C57BL/6 mouse model assessed as decrease in LPS-induced IL-6 release at 50 mg/kg, ip pretreated for 42 hrs followed by LPS injection measured after 6 hrs by ELISA method; type: functional, organism-based; conditions: time 48.0 hrs
[27] = biological target: NACHT, LRR and PYD domains-containing protein 3 (Mus musculus) (UniProt Q8R4B8); assay: Inhibition of NLRP3 inflammasome activation in LPS-stimulated mouse peritoneal macrophage assessed as inhibition of IL-1beta secretion at 2 uM treated for 3 hrs followed by ATP addition measured after 30 mins by Western blot analysis relative to control; type: cell-based; conditions: time 3.5 hrs
[28] = test system: Peritoneal macrophage; assay: Effect on ASC expression in ATP-induced LPS-primed mouse peritoneal macrophage cells at 2 uM treated for 3 hrs followed by ATP addition measured after 30 mins by Western blot analysis; type: functional, cell-based; conditions: time 3.5 hrs
[29] = test system: Peritoneal macrophage; assay: Effect on pro-IL-1beta expression in LPS-stimulated mouse peritoneal macrophage at 2 uM treated for 3 hrs followed by ATP addition measured after 30 mins by Western blot analysis; type: functional, cell-based; conditions: time 3.5 hrs
[30] = test system: Peritoneal macrophage; assay: Antiinflammatory activity against LPS-stimulated mouse peritoneal macrophage assessed as IL-1beta level at 2 uM treated for 3 hrs followed by ATP addition measured after 30 mins by ELISA method; type: functional, cell-based; conditions: time 3.5 hrs

SMILES | Activity [1] | Activity [2] | Activity [4] | Activity [5] | Activity [6] | other results
Cc1cccc2c3c(ccc12)-c1oc2c(c1C(=O)C3=O)CCN(CCCN1CCOCC1)C2.Cl | 24% | Non-Toxic | 91% | 12% |  | solubility [3]: 11.89 µg/mL
Cc1cccc2c3c(ccc12)-c1oc2c(c1C(=O)C3=O)CCN(CCN1CCOCC1)C2 | 26% | Non-Toxic | 99% |  | inactive | IC50 [7]: 273 nM
Cc1cccc2c3c(ccc12)-c1oc2c(c1C(=O)C3=O)CCN(CCO)C2 [listing 1 of 2 here] | 40% | Non-Toxic | 96% | 7% |  | half-life at 20 µM [8]: 11.6 h; microsomal CLint at 20 µM [9]: 2 µL/min/mg; solubility [3]: 0.34 µg/mL (≈ 0.941 µM); microsomal CLint at 20 µM [10]: 7.64 µL/min/mg; half-life at 20 µM [11]: 3.03 h; IC50 [7]: 114 nM
Cc1cccc2c3c(ccc12)-c1oc2c(c1C(=O)C3=O)CCN(CCN1CCCCC1)C2 |  | Non-Toxic | 41% |  | inactive | Activity [12]: inactive
Cc1cccc2c3c(ccc12)-c1oc2c(c1C(=O)C3=O)CCN([C@@H](C)C(=O)N1CCOCC1)C2 | 52% | Non-Toxic | 98% |  | inactive | IC50 [7]: 2920 nM
Cc1cccc2c3c(ccc12)-c1oc2c(c1C(=O)C3=O)CCN([C@H](CO)CCCO)C2 [listing 1 of 2 here] | 41% | Non-Toxic | 99% | 10% |  | half-life at 20 µM [8]: 3.73 h; microsomal CLint at 20 µM [9]: 6.2 µL/min/mg; solubility [3]: 0.45 µg/mL (≈ 1.07 µM); microsomal CLint at 20 µM [10]: 3.8 µL/min/mg; half-life at 20 µM [11]: 6.08 h; IC50 [7]: 65 nM
COC(=O)CC[C@@H](C(=O)OC)N1CCc2c(oc3c2C(=O)C(=O)c2c-3ccc3c(C)cccc23)C1 | 58% | Non-Toxic | 65% | 41% |  | 
Cc1cccc2c3c(ccc12)-c1oc2c(c1C(=O)C3=O)CCN([C@H](CO)CCCO)C2 [listing 2 of 2 here] |  |  |  |  |  | Activity [13]: Active; Activity [14]: Active; Activity [15]: inactive; inhibition [16]: 100%; Activity [17]: inactive; inhibition [18]: Active; Activity [19]: Active; inhibition [20]: Active; Activity [21]: inactive; inhibition [22]: Active; inhibition [23]: Active; Activity [24]: inactive; Activity [25]: Active; Activity [26]: Active; inhibition [27]: 100%; Activity [28]: inactive; Activity [29]: inactive
Cc1cccc2c3c(ccc12)-c1oc2c(c1C(=O)C3=O)CCN([C@H](CO)Cc1ccccc1)C2 | 45% | Non-Toxic | 56% | 9% |  | 
Cc1cccc2c3c(ccc12)-c1oc2c(c1C(=O)C3=O)CCN(CCO)C2.Cl | 22% | Non-Toxic | 99% |  |  | solubility [3]: 2.45 µg/mL
Cc1cccc2c3c(ccc12)-c1oc2c(c1C(=O)C3=O)CCN([C@H](CO)CCCO)C2.Cl | 16% | Non-Toxic | 96% | 6% |  | solubility [3]: 6.34 µg/mL
Cc1cccc2c3c(ccc12)-c1oc2c(c1C(=O)C3=O)CCN([C@@H](C)C(=O)N1CCN(C)CC1)C2 | 33% | Non-Toxic | 97% |  | inactive | IC50 [7]: 383 nM
Cc1cccc2c3c(ccc12)-c1oc2c(c1C(=O)C3=O)CCN(CCN1CCCC1)C2 |  | Non-Toxic | 73% |  | inactive | Activity [12]: inactive
Cc1cccc2c3c(ccc12)-c1oc2c(c1C(=O)C3=O)CCN(C)C2 | 16% | Non-Toxic | 40% | 18% |  | 
COC(=O)CCCN1CCc2c(oc3c2C(=O)C(=O)c2c-3ccc3c(C)cccc23)C1 | 43% | Non-Toxic | 67% | 32% |  | 
COC(=O)CCN1CCc2c(oc3c2C(=O)C(=O)c2c-3ccc3c(C)cccc23)C1 | 46% | Non-Toxic | 87% | 34% |  | 
Cc1cccc2c3c(ccc12)-c1oc2c(c1C(=O)C3=O)CCN(CC(=O)N1CCOCC1)C2 | 36% | Non-Toxic | 96% | 24% |  | IC50 [7]: 368 nM
CNC(=O)CN1CCc2c(oc3c2C(=O)C(=O)c2c-3ccc3c(C)cccc23)C1 | 36% | Non-Toxic | 92% | 19% |  | 
Cc1coc2c1C(=O)C(=O)c1c-2ccc2c(C)cccc12 [TANSHINONE I] | 55% | Non-Toxic | 69% |  | inactive | half-life at 20 µM [8]: 0.0795 h; microsomal CLint at 20 µM [9]: 290 µL/min/mg; microsomal CLint at 20 µM [10]: 65.6 µL/min/mg; half-life at 20 µM [11]: 0.352 h
Cc1cccc2c3c(ccc12)-c1oc2c(c1C(=O)C3=O)CCN(CCO)C2 [listing 2 of 2 here] |  |  |  |  | inactive | Activity [13]: Active; Activity [14]: Active; Activity [15]: inactive; inhibition [16]: 100%; Activity [17]: inactive; inhibition [18]: Active; Activity [19]: Active; inhibition [20]: Active; Activity [21]: inactive; inhibition [22]: Active; inhibition [23]: Active; Activity [24]: inactive; Activity [25]: Active; Activity [26]: Active; inhibition [27]: 100%; Activity [28]: inactive; Activity [29]: inactive
CCN1CCc2c(oc3c2C(=O)C(=O)c2c-3ccc3c(C)cccc23)C1 |  | Non-Toxic | 67% |  | inactive | Activity [12]: inactive
Cc1coc2c1C(=O)C(=O)c1c-2ccc2c1CCCC2(C)C [TANSHINONE IIA] | 19% | Non-Toxic |  | 16% |  | Activity [30]: inactive
COC(=O)CN1CCc2c(oc3c2C(=O)C(=O)c2c-3ccc3c(C)cccc23)C1 | 31% | Non-Toxic | 70% | 6% |  | 
Cc1cccc2c3c(ccc12)-c1oc2c(c1C(=O)C3=O)CCN(CCCN(C)C)C2 | 19% | Non-Toxic | 95% | 8% |  | 
